One experiment has as its system U937 PDE IV. In words: Test procedure No. 3: inhibition of PDE-IV isolated from U937 cells. In kind it is biochemical. The settings on record: 1 μM [3H]-cAMP; 37° C.; pH 7.8; linear regression of percent inhibition.
Experiment [1] concerns PDE IV isolated from dog tracheal muscle. Briefly: Test Procedure No. 1: inhibition of PDE IV from canine tracheal muscle (cAMP metabolism). In kind it is biochemical, dog (canine). The settings on record: 1 μM 3H-cAMP, 10 μM CI-930, 30° C. The procedure:
A solution containing PDE IV is prepared from canine tracheal muscle as follows:
The dog is euthanized with an overdose of beuthanasia while under anesthesia induced by a 33 mg/kg IV bolus of Nembutal. The trachealis muscle is removed, cleaned of connective tissue, and minced thoroughly. Three to four grams of tissue is then homogenized in Tris-HCl buffer (pH 7.8) using a Polytron. The homogenate is then centrifuged at 25,000×g (4° C.) for 30 minutes. The supernatant is decanted and filtered through four layers of gauze, and applied to a 40 cm×2 cm DEAE-Sepharose column that is equilibrated with Tris-HCl buffer (pH 7.8). The column is then washed with an additional 240 mL of buffer to remove unbound proteins. PDE is eluted using 450 mL of Tris-HCl buffer containing a linear gradient of 0.0-1.0M Na-acetate (80 mL/hr), and 7.5 mL fractions are collected. Each fraction is assayed for cAMP- and cGMP-metabolizing PDE activity. Fractions eluting at approximately 0.6M Na-acetate, and containing cAMP but not cGMP metabolic activity are pooled and used as a PDE stock solution for assaying PDE IV inhibitory activity.
CI-930 is included as an inhibitor of the cyclic GMP-sensitive, cyclic AMP-selectivePDE (PDE III) that is also present in the PDE IV stock solution when prepared as described above.
The two abovementioned PDE IV inhibition tests were used to determine the PDE IV inhibitory abilities of some of the compounds of the present invention.

The subject of another experiment is PDE IV. In words: Test Procedure No. 2: functional PDE IV inhibition, relaxation of carbachol-precontracted tracheal rings with CI-930. In kind it is cell-based, guinea pig (Male Hartley). Conditions: guinea pig tracheal rings precontracted with 1 μM carbachol; CI-930 10 μM; read-out: Test No. 2 IC50 (functional PDE inhibitory test). The procedure:
The following standard test is also employed to assess the abilities of compounds to inhibit PDE IV functionally.
Male Hartley guinea pigs (500-550 g, Charles River) were euthanized by a blow to the head, and the tracheas were removed and placed in aerated physiological salt solution (PSS) containing NaCl ([…]), KH2 PO4 ([…]), KCl (4.74 mM), CaCl2 (2.5 mM), MgSO4.7H2 O ([…]), NaHCO3 (25 mM), dextrose (11.1 mM), cocaine and hydrocortisone (3 μM and 10 μM, respectively, to block intraneural and extraneural uptake mechanisms), propranolol and phentolamine (1 μM and 10 μM, respectively, to block adrenoceptors),indomethacin (2.8 μM; to block spontaneous tension generation), and calcium disodium EDTA (26 μM, as an antioxidant). Tracheal rings were prepared and mounted in 10 ml organ baths for the measurement of isometric tension generation as previously described (Heaslip et al., 1986).
Tracheal relaxation resulting from the inhibition of PDE-IV or PDE-III was assessed by a method similar to that employed by Harris et al. (1989). Tracheal rings were precontracted with 1 μM carbachol until a stable level of tension was obtained (30 min). To explore the inhibition of PDE-IV, tracheal rings were then incubated (45 min) with CI-930 (10 μM), thus inhibiting PDE-III and sensitizing the ring to the relaxant effects of PDE-IV inhibitors. Conversely, the inhibition of tracheal PDE-III was explored using rings pretreated with rolipram (10 μM), and thereby sensitized to PDE-III inhibitors (Harris et al., 1989). The functional inhibition of PDE-IV or PDE-III was determined by adding a test compound to the tissue bath in cumulatively increasing concentrations and monitoring the degree of relaxation induced in the continued presence of CI-930 or rolipram (respectively). After adding the final concentration of test compound to the organ bath, tracheal rings were washed repeatedly with PSS, and allowed to relax to resting tension. Percent relaxations produced by each concentration of test compound were calculated as a percentage relaxation of tension maintained in the presence of the preincubating PDE inhibitor, relative to the final resting tension determined at the end of each experiment.
The two abovementioned PDE IV inhibition tests were used to determine the PDE IV inhibitory abilities of some of the compounds of the present invention. The table below indicates the compounds tested and the results thereof. For each of Tests 1 and 2, the results are given as IC50 s for the compound tested in M concentrations.

Where a name gives a salt, the structure may show the parent alone. Where only a bound is given, the exact number is not on record here.

A word on the IC50: it is the concentration needed to halve the response being measured. In turn, `COc1ccc(-c2ccc(C(=O)NCc3cccnc3)cc2)cc1OC1CCCC1` [Comparative Example 1, 3'-Cyclopentyloxy-4'-methoxy-biphenyl-4(3-methylpryridyl) carboxylic acid amide, reference compound] gave a half-inhibitory concentration (IC50) in the experiment on U937 PDE IV greater than 1000 nM.

For the compound `COc1ccc(-c2ccc(C(=O)O)cc2)cc1OC1CCCC1` [Example 1, 3'-Cyclopentyloxy-4'-methoxy-biphenyl-4-carboxylic acid], the IC50 in the experiment on U937 PDE IV was 230 nM; in experiment [1] (pH 7.8), 245 nM. Turning to `COc1ccc(-c2ccc(C(N)=O)cc2)cc1OC1CCCC1` [Example 2, 3'-Cyclopentyloxy-4'-methoxy-biphenyl-4-carboxylic acid amide], the IC50 in experiment [1] (pH 7.8) turned out to be 60 nM; with PDE IV, 160 nM. On the same counts, the results for `COc1ccc(-c2ccc(C(=O)NN)cc2)cc1OC1CCCC1` [Example 3, 3'-Cyclopentyloxy-4'-methoxy-biphenyl-4-carboxylic acid hydrazide] are 58 nM and 66 nM. On to `COc1ccc(-c2cccc(C(=O)NN)c2)cc1OC1CCCC1` [Example 4, 3'-Cyclopentyloxy-4'-methoxy-biphenyl-3-carboxylic acid hydrazide], for which half-maximal inhibition in experiment [1] (pH 7.8) (IC50) required 100 nM. Consider `COc1ccc(-c2cccc(C(=O)O)c2)cc1OC1CCCC1` [Example 5, 3'-Cyclopentyloxy-4'-methoxy-biphenyl-3-carboxylic acid], for which the half-inhibitory concentration (IC50) in experiment [1] (pH 7.8) is 23 nM; in the experiment with PDE IV, 61 nM. Consider `COc1ccc(-c2ccc(Cl)cc2)cc1OC1CCCC1` [Example 6, 4-Chloro-3'-Cyclopentyloxy-4'-methoxy-biphenyl], for which the IC50 amounted to 100 nM in experiment [1] (pH 7.8) and 12000 nM with PDE IV. For `COc1ccc(-c2cccc(C=O)c2)cc1OC1CCCC1` [Example 8, 3'-Cyclopentyloxy-4'-methoxy-biphenyl-3-carbaldehyde], the half-maximal inhibitory concentration (IC50) in experiment [1] (pH 7.8) turned out to be 34 nM; in the experiment on PDE IV it was 330 nM. As to `COc1ccc(-c2ccc(C=O)cc2)cc1OC1CCCC1` [Example 9, 3'-Cyclopentyloxy-4'-methoxy-biphenyl-4-carbaldehyde], the IC50 in experiment [1] (pH 7.8) is 20 nM; with PDE IV, 23 nM. In experiment [1] (pH 7.8), `COc1ccc(-c2ccccc2C=O)cc1OC1CCCC1` [Example 10, 3'-Cyclopentyloxy-4'-methoxy-biphenyl-2-carbaldehyde] displayed an IC50 of 100 nM. Same read-out and setting: in the case of `COc1ccc(-c2cccc(C(C)=O)c2)cc1OC1CCCC1` [Example 11, 1-(3'-Cyclopentyloxy-4'-methoxy-biphenyl-3-yl)-ethanone] it was 4.3 nM; in that of `COc1ccc(-c2ccc(C(C)=O)cc2)cc1OC1CCCC1` [Example 12, 1-(3'-Cyclopentyloxy-4'-methoxy-biphenyl-4-yl)-ethanone], 86 nM. Regarding `COc1ccc(-c2ccc(C(=O)c3ccccc3)cc2)cc1OC1CCCC1` [Example 13, (3'-Cyclopentyloxy-4'-methoxy-biphenyl-4-yl)-phenylmethanone], the half-inhibitory concentration (IC50) in experiment [1] (pH 7.8) turned out to be 610 nM. Turning to `COc1ccc(-c2cccc(C#N)c2)cc1OC1CCCC1` [Example 14, 3'-Cyclopentyloxy-4'-methoxy-biphenyl-3-carbonitrile], in experiment [1] (pH 7.8), the 50% inhibitory concentration (IC50) was found to be 84 nM. On the same count and under the same terms, in the case of `COc1ccc(-c2ccc(N)cc2)cc1OC1CCCC1` [Example 16, 3'-Cyclopentyloxy-4'-methoxybiphenyl-4-ylamine] it was 330 nM. Turning to `COc1ccc(-c2ccc(C(=O)O)cc2)cc1OC1CCCC1` [Example 17, 3'-Cyclopentyloxy-4'-methoxy-biphenyl-4-carboxylic acid sodium salt], the half-maximal inhibitory concentration (IC50) in experiment [1] (pH 7.8, sodium salt) turned out to be 110 nM. In the case of `COC(=O)c1cccc(-c2ccc(OC)c(OC3CCCC3)c2)c1` [Example 18, 3'-Cyclopentyloxy-4'-methoxy-biphenyl-3-carboxylic acid methyl ester], the 50% inhibitory concentration (IC50) in experiment [1] (pH 7.8) is 31 nM; with PDE IV it was 230 nM. Regarding `COC(=O)c1ccc(-c2ccc(OC)c(OC3CCCC3)c2)cc1` [Example 19, 3'-Cyclopentyloxy-4'-methoxy-biphenyl-4-carboxylic acid methyl ester], in experiment [1] (pH 7.8), the midpoint of inhibition, the IC50, lay at 580 nM. In turn, `COc1ccc(-c2ccc3c(c2)CCCC3=O)cc1OC1CCCC1` [Example 20, 6-(3-Cyclopentyloxy-4-methoxy-phenyl)-3,4-dihydro-2H-naphthalen-1-one] had an IC50 in experiment [1] (pH 7.8) of 59 nM. Take `COc1ccc(-c2ccc3c(c2)CCC/C3=N\O)cc1OC1CCCC1` [Example 21, (E)-6-(3-Cyclopentyloxy-4-methoxy-phenyl)-3,4-dihydro-2H-naphthalen-1-one oxime]: in experiment [1] (pH 7.8), the IC50 was found to be 290 nM. On to `COc1ccc(-c2ccc(C=NO)cc2)cc1OC1CCCC1` [Example 22, 3'-Cyclopentyloxy-4'-methoxy-biphenyl-4-carbaldehyde oxime], for which the 50% inhibitory concentration (IC50) in experiment [1] (pH 7.8) turned out to be 36 nM; with PDE IV, 140 nM.

As for `COc1ccc(-c2cccc(C=NO)c2)cc1OC1CCCC1` [Example 23, 3'-Cyclopentyloxy-4'-methoxy-biphenyl-3-carbaldehyde oxime], the half-maximal inhibitory concentration (IC50) is 39 nM in experiment [1] (pH 7.8) and 1900 nM with PDE IV. In turn, `COc1ccc(-c2ccc3c(c2)CCC/C3=N\OC(C)=O)cc1OC1CCCC1` [Example 25, E-6-(3-Cyclopentyloxy-4-methoxy-phenyl)-3,4-dihydro-2H-naphthalen-1-one oxime acetate] yielded an IC50 in experiment [1] (pH 7.8) of 730 nM. In turn, `COc1ccc(-c2ccc(NC(N)=O)cc2)cc1OC1CCCC1` [Example 26, (3'-Cyclopentyloxy-4'-methoxy-biphenyl-4-yl)-urea] gave an IC50 in experiment [1] (pH 7.8) of 270 nM. As for `COc1ccc(-c2cccc(NC(N)=O)c2)cc1OC1CCCC1` [Example 27, (3'-Cyclopentyloxy-4'-methoxy-biphenyl-3-yl)-urea], the IC50 in experiment [1] (pH 7.8) came out at 550 nM. The same measure, in the same setting: the result for `COc1ccc(-c2ccc(NC(C)=O)cc2)cc1OC1CCCC1` [Example 28, N-(3'-Cyclopentyloxy-4'-methoxy-biphenyl-4-yl)-acetamide] reads 1000 nM; that for `COc1ccc(-c2cccc(NC(C)=O)c2)cc1OC1CCCC1` [Example 29, N-(3'-Cyclopentyloxy-4'-methoxy-biphenyl-3-yl)-acetamide], 470 nM. Turning to `COc1ccc(-c2cccc(C(N)=O)c2)cc1OC1CCCC1` [Example 30, 3'-Cyclopentyloxy-4'-methoxy-biphenyl-3-carboxylic acid amide], the IC50 in experiment [1] (pH 7.8) stood at 16 nM. In experiment [1] (pH 7.8), `COc1ccc(-c2ccc(C(=O)NO)cc2)cc1OC1CCCC1` [Example 31, 3'-Cyclopentyloxy-4'-methoxy-biphenyl-4-carboxylic acid hydroxylamide] returned an IC50 of 100 nM. `COc1ccc(-c2ccc(C(=O)O)c(C(=O)O)c2)cc1OC1CCCC1` [Example 32, 3'-Cyclopentyloxy-4'-methoxy-biphenyl-3,4-dicarboxylic acid] returned a half-inhibitory concentration (IC50) in experiment [1] (pH 7.8) of 10000 nM. With `COC(=O)c1ccc(-c2ccc(OC)c(OC3CCCC3)c2)cc1C(=O)OC` [Example 33, 3'-Cyclopentyloxy-4'-methoxy-biphenyl-3,4-dicarboxylic acid dimethyl ester], 1100 nM corresponded to half-maximal inhibition in experiment [1] (pH 7.8) (IC50). In experiment [1] (pH 7.8), `COc1ccc(-c2ccc3c(=O)[nH][nH]c(=O)c3c2)cc1OC1CCCC1` [Example 34, 6-(3'-Cyclopentyloxy-4-methoxyphenyl)-2,3-dihydrophthalizine-1,4-dione] gave an IC50 of 49 nM.
